Measurements reported in publication PMC4114533, “Synthesis, Anti-tubulin and Antiproliferative SAR of Steroidomimetic Dihydroisoquinolinones” (Chemmedchem, 2014).
Where two headings read alike, the source gives them in different places. Each block holds one compound with its values, some of them ahead of it.

What was measured:
[1] = test system: DU-145 human prostate cancer cells; set-up: method as in PMID 24124095; settings: DU-145 cells; data taken from the literature ref 8; cited from earlier work
[2] = test system: MDA MB-231 human breast cancer cells; set-up: method as in PMID 24124095; settings: MDA MB-231 cells; data taken from the literature ref 8; cited from earlier work
carbonic anhydrase = experiment: Carbonic anhydrase inhibition; assay type: biochemical
[3] = test system: HUVECs within a matrix of human diploid fibroblasts of dermal origin; experiment: In vitro model of angiogenesis (tubule formation, co-culture); assay type: cell-based; settings: 25 nM and 50 nM, VEGF-stimulated, quantified after 11 days
Description: Compounds 16 f and 17 f were also assayed for anti-angiogenic activity in an in vitro model of angiogenesis, wherein endothelial cells co-cultured in a matrix of human dermal fibroblasts are used to assess anti-angiogenic potential (Figure 2). When stimulated with VEGF the endothelial cells proliferate and migrate through the matrix to form tubule-like structures. The extent of tubule formation was quantified after 11 days as described elsewhere.[14] […] Quantification carried out by calculating total pixel length reflects the lack of tubule formation.
Cell lines: DU-145 (brain metastasis carcinoma of the prostate) and MDA MB-231 (metastatic pleural effusion of breast adenocarcinoma) established human cell lines were obtained from ATCC Global Bioresource Center. […] The effect of drugs on tubule formation was assessed using an angiogenesis kit (TCS-Cellworks).
Anti-angiogenic assays: HUVECs were cultured in a 24-well plate within a matrix of human diploid fibroblasts of dermal origin in optimised medium supplied by the company. […] The extent of tubule formation was then quantified, either manually by eye or using free software available through the National Institutes of Health website (NIH image [Mac version] from http://rsb.info.nih.gov/nih-image/download.html). […] After correcting for background the software counted the number of pixels representing tubules. […]

Bovine brain tubulin [4] = target: T1, Bovine brain tubulin (Bos taurus, UniProt P81947+Q6B856); experiment: Inhibition of [3H]colchicine binding to tubulin; settings: mean ±SD; for inhibition at 5 µM: 5 μM inhibitor, 1.0 μM tubulin, 5.0 μM [3H]colchicine, read-out: CB [% inhib.] 5 μM inhibitor
T1 construct: from tissue; host or cells: bovine brain
Description: (§1) Tubulin assays: Bovine brain tubulin, prepared as described previously,[16] was used in studies presented here. Assembly IC50 values were determined as described in detail elsewhere.[17] Briefly, 1.0 mg mL^−1 (10 μM) tubulin was pre-incubated without GTP with varying compound concentrations for 15 min at 30 °C. Reaction mixtures were placed on ice, and GTP (final concentration, 0.4 mM) was added. The reaction mixtures were transferred to cuvettes, held at 0 °C in a recording spectrophotometer. Baselines were established at 0 °C, and increase in turbidity was followed for 20 min following a rapid (<30 s) jump to 30 °C. Compound concentrations required to decrease the turbidity increase by 50 % were determined. The method for measuring inhibition of the binding of [^3H]colchicine to tubulin was described in detail previously.[18] Reaction mixtures contained 0.1 mg mL^−1 (1.0 μM) tubulin, 5.0 μM [^3H]colchicine, and potential inhibitor at 5.0 μM. […] A minimum of two experiments were performed with each compound.

[5] = test system: DU-145 human prostate cancer cells; experiment: Antiproliferative assay (WST-1, 96 h), DU-145; assay type: cell-based; settings: for GI50: Homo sapiens, DU-145 cells, 96 h, WST-1, mean of three determinations
Summary of the method: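 MDA MB-231 and DU-145 cells, 5000 per well in RPMI-1640 with 10% FBS, exposed to compound at 10^−9–10^−4 M for 96 h. Live cells by WST-1, as percent of vehicle control; GI50 is 50% growth inhibition, triplicate experiments.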

Bovine brain tubulin [6] = experiment: Tubulin polymerisation (assembly) assay; assay type: biochemical; settings: 10 μM tubulin, mean ±SD of at least two determinations; read-out: TP IC50 (tubulin polymerisation)
Description: as §1

[7] = test system: MDA MB-231 human breast cancer cells; experiment: Antiproliferative assay (WST-1, 96 h), MDA MB-231; assay type: cell-based; settings: MDA MB-231 cells, WST-1, mean of three determinations
Description: Cell lines: DU-145 (brain metastasis carcinoma of the prostate) and MDA MB-231 (metastatic pleural effusion of breast adenocarcinoma) established human cell lines were obtained from ATCC Global Bioresource Center. Cells were maintained in a 5 % CO2 humidified atmosphere at 37 °C in RPMI-1640 medium, supplemented with 10 % fetal bovine serum, penicillin, (100 U mL^−1), and streptomycin (0.1 mg mL^−1). The effect of drugs on tubule formation was assessed using an angiogenesis kit (TCS-Cellworks).
Antiproliferative assays: DU-145 and MDA MB-231 cells were seeded into 96-well microtitre plates (5000 cells per well) and treated with compound (10^−9–10^−4 M) or with vehicle control. At 96 h post-treatment, live cell counts were determined by WST-1 cell proliferation assay (Roche, Penzberg, Germany), as per the manufacturer’s instructions. Viability results were expressed as a percentage of mean control values resulting in the calculation of the 50 % growth inhibition (GI50). All experiments were performed in triplicate.

[8] = set-up: method as in PMID 22247790, PMID 24124095; settings: THIQ series, cell line not printed ref 7, 8; cited from earlier work
Leukemia CCRF-CEM = experiment: NCI 60-cell line assay, CCRF-CEM; assay type: cell-based; settings: Homo sapiens, NCI-60 panel, mean of three determinations
Description: (§2) Data from seven cell lines are presented along with the mean activity across the whole panel (MGM value). Screening was conducted at concentrations ranging from 10 nM upwards, with maximal activity (where a 50 % growth inhibition was obtained in all cell lines at a concentration of 10 nM) being indicated by an MGM value of 10 nM.

Renal SN12-C = experiment: NCI 60-cell line assay, SN12-C; assay type: cell-based; settings: Homo sapiens, SN12C; NCI-60 panel, mean of three determinations
Description: as §2

Melanoma UACC-62 = experiment: NCI 60-cell line assay, UACC-62; assay type: cell-based; settings: Homo sapiens, NCI-60 panel, lowest concentration screened 10 nM
Description: as §2

Ovarian OVCAR-3 = experiment: NCI 60-cell line assay, OVCAR-3; assay type: cell-based; settings: Homo sapiens, NCI-60 panel, lowest concentration screened 10 nM
Description: as §2

NCI 60-cell line panel = experiment: NCI 60-cell line assay, mean across whole panel (MGM); assay type: cell-based; settings: NCI-60 panel
Description: as §2

Lung HOP-62 = experiment: NCI 60-cell line assay, HOP-62; assay type: cell-based; settings: Homo sapiens, NCI-60 panel, mean of three determinations
Description: as §2

Colon HCT-116 = experiment: NCI 60-cell line assay, HCT-116; assay type: cell-based; settings: Homo sapiens, NCI-60 panel, mean of three determinations
Description: as §2

CNS SF-539 = experiment: NCI 60-cell line assay, SF-539; assay type: cell-based; settings: CNSSF-539; NCI-60 panel, mean of three determinations
Description: as §2

T1 sequence (Q6B856 whole entry): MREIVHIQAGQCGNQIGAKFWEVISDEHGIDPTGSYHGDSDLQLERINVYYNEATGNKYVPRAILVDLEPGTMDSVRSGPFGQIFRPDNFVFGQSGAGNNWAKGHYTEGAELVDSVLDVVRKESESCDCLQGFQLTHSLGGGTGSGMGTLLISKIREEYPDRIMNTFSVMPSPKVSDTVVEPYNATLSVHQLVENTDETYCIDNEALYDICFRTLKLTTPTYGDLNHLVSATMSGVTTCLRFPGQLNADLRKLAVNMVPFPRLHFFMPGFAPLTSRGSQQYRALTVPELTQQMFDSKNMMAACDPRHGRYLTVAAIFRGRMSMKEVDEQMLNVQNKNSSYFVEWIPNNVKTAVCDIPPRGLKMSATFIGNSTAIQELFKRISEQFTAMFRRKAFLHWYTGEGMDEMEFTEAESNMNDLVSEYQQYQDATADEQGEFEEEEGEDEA
T1 sequence (P81947 whole entry): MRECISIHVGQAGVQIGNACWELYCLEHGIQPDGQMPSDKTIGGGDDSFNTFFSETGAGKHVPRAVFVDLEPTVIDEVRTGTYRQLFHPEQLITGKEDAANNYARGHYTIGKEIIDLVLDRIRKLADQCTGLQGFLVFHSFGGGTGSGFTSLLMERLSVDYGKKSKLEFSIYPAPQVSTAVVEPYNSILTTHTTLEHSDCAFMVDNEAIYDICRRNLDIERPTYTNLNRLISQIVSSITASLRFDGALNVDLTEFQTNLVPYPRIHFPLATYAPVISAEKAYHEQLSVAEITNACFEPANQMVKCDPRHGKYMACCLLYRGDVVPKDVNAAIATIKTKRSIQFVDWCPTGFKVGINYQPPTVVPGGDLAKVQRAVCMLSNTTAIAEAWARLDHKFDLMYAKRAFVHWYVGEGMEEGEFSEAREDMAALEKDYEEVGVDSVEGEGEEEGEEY

Structure (SMILES): COc1cc2c(cc1OS(N)(=O)=O)CCN(C(=O)c1cc(OC)c(OC)c(OC)c1)C2 [19 c]
GI50 [1]: 1.81 µM | GI50 [2]: 1.72 µM

IC50 (carbonic anhydrase): 0.89 µM | inhibition at 1 µM (Bovine brain tubulin [4]; 1 μM inhibitor, read-out: CB [% inhib.] 1 μM inhibitor): 65 ± 3% | inhibition at 5 µM (Bovine brain tubulin [4]): 89 ± 0.1% | GI50 [5]: 0.179 µM | IC50 (Bovine brain tubulin [6]): 1.3 ± 0.01 µM | GI50 [7]: 0.118 µM
Structure (SMILES): COc1cc(OC)cc(C(=O)N2CCc3cc(OS(N)(=O)=O)c(OC)cc3C2=O)c1 [17 f, 2-(3,5-Dimethoxybenzoyl)-7-methoxy-6-sulfamoyloxy-3,4-dihydroisoquinolin-1(2H)-one]
formation of tubule-like structures [3]: almost completely inhibits | fold more active than the 3′-methoxy derivatives ([5]; vs 3′-methoxy derivatives 16 b and 17 b): > 10 fold

Structure (SMILES): COc1cccc(CN2CCc3cc(OS(N)(=O)=O)c(OC)cc3C2)c1 [compound 2]
GI50 [8]: 2.1 µM

Structure (SMILES): COc1cc2c(cc1O)CCN(C(=O)c1cc(OC)c(OC)c(OC)c1)C2 [18 c]
GI50 [1]: 0.921 µM | GI50 [2]: 0.733 µM

inhibition at 5 µM (Bovine brain tubulin [4]): 83 ± 2% | GI50 [5]: 0.051 µM | IC50 (Bovine brain tubulin [6]): 1.3 ± 0.1 µM | GI50 [7]: 0.071 µM
Structure (SMILES): COc1cc2c(cc1O)CCN(C(=O)c1cc(OC)c(OC)c(OC)c1)C2=O [16 g, 6-Hydroxy-7-methoxy-2-(3,4,5-trimethoxybenzoyl)-3,4-dihydroisoquinolin-1(2H)-one]
GI50 (Leukemia CCRF-CEM): 0.0171 µM | GI50 (Renal SN12-C): 0.056 µM | GI50 (Melanoma UACC-62): < 0.01 µM | GI50 (Ovarian OVCAR-3): < 0.01 µM | mean activity in the NCI 60-cell line assay (NCI 60-cell line panel): 33 nM | MGM (mean concentration that caused 50 % growth inhibition in all 60 cell lines) (NCI 60-cell line panel; all 60 cell lines): 0.033 µM | GI50 (Lung HOP-62): 0.0295 µM | GI50 (Colon HCT-116): 0.0216 µM | GI50 (CNS SF-539): 0.0102 µM
